Marks after values point to notes of the source that are not given here.
Assays:
Plasmopara viticola = assay: Test A: grape downy mildew, curative spray on grape seedlings, visual disease rating; format: in vivo; conditions: rating without asterisk; 100 = 100% disease control, 0 = no disease control relative to the controls
From the text: Upon removal, visual disease ratings were made. […] A dash (-) indicates no test results.

Phytophthora infestans = format: in vivo; conditions: rating without asterisk; 100 = 100% disease control, 0 = no disease control relative to the controls
Septoria nodorum = assay: Test E: Septoria glume blotch, preventive spray on wheat seedlings, visual disease rating; format: in vivo
From the text: (§1) A dash (-) indicates no test results.

Septoria tritici = assay: Test F: wheat leaf blotch, preventive spray on wheat seedlings, visual disease rating; format: in vivo
From the text: as §1

[1] = test system: Puccinia recondita f. sp. tritici; assay: Test G: wheat leaf rust, preventive spray on wheat seedlings, visual disease rating
From the text: (§2) General protocol for preparing test suspensions for Tests A-H: the test compounds were first dissolved in acetone in an amount equal to 3% of the final volume and then suspended at the desired concentration (in ppm) in acetone and purified water (50/50 mix by volume) containing 250 ppm of the surfactant Trem® 014 (polyhydric alcohol esters). The resulting test suspensions were then used in Tests A-H. Spraying a 200 ppm test suspension to the point of run-off on the test plants was the equivalent of a rate of 600 g/ha. Unless otherwise indicated, the rating values indicate a 200 ppm test suspension was used.
The test suspension was sprayed to the point of run-off on wheat seedlings. The following day the seedlings were inoculated with a spore suspension of Puccinia recondita f. sp. tritici (the causal agent of wheat leaf rust) and incubated in a saturated atmosphere at 20° C. for 24 h, and then moved to a growth chamber at 20° C. for 6 days, after which time visual disease ratings were made.
(§3) An asterisk “*” next to the rating value indicates a 40 ppm test suspension was used, a double asterisk “**” next to the rating value indicates a 130 ppm test suspension was used.

Botrytis cinerea = assay: Test B: tomato botrytis, preventive spray on tomato seedlings, visual disease rating; conditions: for Test B rating (disease control): rating without asterisk, 100 = 100% disease control, 0 = no disease control relative to the controls
From the text: as §2
The test suspension was sprayed to the point of run-off on tomato seedlings. The following day the seedlings were inoculated with a spore suspension of Botrytis cinerea (the causal agent of tomato botrytis) and incubated in saturated atmosphere at 20° C. for 48 h, and then moved to a growth chamber at 24-27° C. for 2-3 days, after which time visual disease ratings were made.
A dash (-) indicates no test results. An asterisk “*” next to the rating value indicates a 40 ppm test suspension was used, a double asterisk “**” next to the rating value indicates a 130 ppm test suspension was used.

[2] = test system: Blumeria graminis f. sp. tritici; assay: Test H: wheat powdery mildew, preventive spray on wheat seedlings, visual disease rating
From the text: General protocol for preparing test suspensions for Tests A-H: the test compounds were first dissolved in acetone in an amount equal to 3% of the final volume and then suspended at the desired concentration (in ppm) in acetone and purified water (50/50 mix by volume) containing 250 ppm of the surfactant Trem® 014 (polyhydric alcohol esters). The resulting test suspensions were then used in Tests A-H. Spraying a 200 ppm test suspension to the point of run-off on the test plants was the equivalent of a rate of 600 g/ha. Unless otherwise indicated, the rating values indicate a 200 ppm test suspension was used. (In Table A, an asterisk “*” next to the rating value indicates a 40 ppm test suspension was used; a double asterisk “**” next to the rating value indicates a 130 ppm.)
The test suspension was sprayed to the point of run-off on wheat seedlings. The following day the seedlings were inoculated with a spore dust of Blumeria graminis f. sp. tritici (also known as Erysiphe graminis f. sp. tritici, the causal agent of wheat powdery mildew) and incubated in a growth chamber at 20° C. for 8 days, after which time visual disease ratings were made.
as §3

Alternaria solani = assay: Test C: tomato early blight, preventive spray on tomato seedlings, visual disease rating; format: in vivo; conditions: rating without asterisk; 100 = 100% disease control, 0 = no disease control relative to the controls
From the text: as §1

cucumber seedlings = assay: Test I: phytotoxicity to the cucumber seedlings of the test units; format: in vivo; conditions: 250 ppm active ingredient applied to soil, 7 days
Description: Control of the southern root-knot nematode (Meloidogyne incognita) through contact and/or systemic means was evaluated in test units consisting of small open containers filled with a sandy soil mixture and cucumber seedlings.
Test compounds were formulated using a solution containing 50% acetone and 50% water. Test compounds were applied directly to the soil of the test units at concentrations of 250 or 50 ppm active ingredient. Each test was replicated 3 times. After treatment, the test units were allowed to dry for 1 h, after which time about 250 second-stage juvenile (J2) larvae were pipetted into the soil. The test units were held at 27° C. and watered as needed for 7 days.
Nematocidal efficacy was determined by the amount of root gall formation observed when compared to an untreated control. No gall formation was indicative of 100% nematode control. Gall formation equivalent to that found in the untreated control was indicative of 0% control. No nematode control rating was given to compounds showing significant phytotoxicity.

[3] = rating without asterisk, 100 = 100% disease control, 0 = no disease control relative to the controls

**Q.** Which “Test A rating (disease control)” value (Plasmopara viticola) does the source give for `Cn1cc(C(=O)Nc2ccccc2-c2cc(F)c(-n3ccc(C(F)(F)F)n3)c(F)c2)c(C(F)F)n1` [Compound 173, 3-(difluoromethyl)-N-[3′,5′-difluoro-4′-[3-(trifluoromethyl)-1H-pyrazol-1-yl][1,1′-biphenyl]-2-yl]-1-methyl-1H-pyrazole-4-carboxamide] here?
**A.** 0%

**Q.** And the “Test D rating (disease control)” value (Phytophthora infestans)?
**A.** 0%

**Q.** And the “Test E rating (disease control)” value (Septoria nodorum; [3])?
**A.** 100%

**Q.** What about the “Test F rating (disease control)” value (Septoria tritici; [3]) of the same molecule?
**A.** 100%

**Q.** What about the “Test G rating (disease control)” value [1, 3] of the same molecule?
**A.** 100%

**Q.** What about the “Test B rating (disease control)” value (Botrytis cinerea) of the same molecule?
**A.** 72%

**Q.** What about the “Test H rating (disease control)” value [2, 3] of the same molecule?
**A.** 100%

**Q.** What does the source list for `O=C(NCCc1ccc(-n2ccc(C(F)(F)F)n2)cc1)c1ccccc1C(F)(F)F` [Compound 5, 2-(trifluoromethyl)-N-[2-[4-[3-(trifluoromethyl)-1H-pyrazol-1-yl]phenyl]ethyl]benzamide]?
**A.** Test C rating (disease control) (Alternaria solani): 83%; Test D rating (disease control) (Phytophthora infestans): 0%; Test E rating (disease control) (Septoria nodorum; [3]): 0%; Test F rating (disease control) (Septoria tritici; [3]): 100%; phytotoxicity (cucumber seedlings): no significant phytotoxicity; Test G rating (disease control) [1, 3]: 0%; Test B rating (disease control) (Botrytis cinerea): 17%; Test H rating (disease control) [2, 3]: 96%

**Q.** `O=C(NCCc1ncc(-n2ccc(C(F)(F)F)n2)cc1Cl)c1ccccc1C(F)(F)F` [Compound 85, N-[2-[3-chloro-5-[(3-trifluoromethyl)-1H-pyrazol-1-yl]-2-pyridinyl]ethyl]-2-(trifluoromethyl)benzamide] was tested. Which “Test A rating (disease control)” value (Plasmopara viticola) did it give?
**A.** 0%

**Q.** And the “Test D rating (disease control)” value (Phytophthora infestans)?
**A.** 0%

**Q.** What about the “Test E rating (disease control)” value (Septoria nodorum; [3]) of the same molecule?
**A.** 100%

**Q.** What about the “Test F rating (disease control)” value (Septoria tritici; [3]) of the same molecule?
**A.** 100%

**Q.** What about the “Test G rating (disease control)” value [1, 3] of the same molecule?
**A.** 0%

**Q.** What about the “Test B rating (disease control)” value (Botrytis cinerea) of the same molecule?
**A.** 95%

**Q.** What about the “Test H rating (disease control)” value [2, 3] of the same molecule?
**A.** 100%

**Q.** For `O=C(NCCc1ccc(-n2ccc(C(F)(F)F)n2)cc1Cl)c1ncccc1C(F)(F)F` [Compound 40, N-[2-[2-chloro-4-[3-(trifluoromethyl)-1H-pyrazol-1-yl]phenyl]ethyl]-3-(trifluoromethyl)-2-pyridinecarboxamide], which “Test D rating (disease control)” value (Phytophthora infestans) is on record?
**A.** 0%

**Q.** And the “Test E rating (disease control)” value (Septoria nodorum; [3])?
**A.** 100%

**Q.** And the “Test F rating (disease control)” value (Septoria tritici; [3])?
**A.** 100%

**Q.** And the phytotoxicity (cucumber seedlings)?
**A.** no significant phytotoxicity

**Q.** And the “Test G rating (disease control)” value [1, 3]?
**A.** 0%

**Q.** What about the “Test B rating (disease control)” value (Botrytis cinerea) of the same molecule?
**A.** 66%

**Q.** What about the “Test H rating (disease control)” value [2, 3] of the same molecule?
**A.** 100%

**Q.** `O=C(NCC(F)(F)c1ccc(-n2ccc(C(F)(F)F)n2)cc1Cl)c1ncccc1C(F)(F)F` [Compound 150, N-[2-[2-chloro-4-[3-(trifluoromethyl)-1H-pyrazol-1-yl]phenyl]-2,2-difluoroethyl]-3-(trifluoromethyl)-2-pyridinecarboxamide] was tested. Which “Test E rating (disease control)” value (Septoria nodorum; * 40 ppm test suspension) did it give?
**A.** 100* %

**Q.** And the “Test F rating (disease control)” value (Septoria tritici; * 40 ppm test suspension)?
**A.** 100* %

**Q.** What about the phytotoxicity (cucumber seedlings) of the same molecule?
**A.** no significant phytotoxicity

**Q.** And the “Test G rating (disease control)” value ([1]; * 40 ppm test suspension)?
**A.** 0* %

**Q.** And the “Test H rating (disease control)” value ([2]; * 40 ppm test suspension)?
**A.** 100* %

**Q.** `O=C(Nc1ccccc1-c1cc(F)c(-n2ccc(C(F)(F)F)n2)c(F)c1)c1ncccc1C(F)(F)F` [Compound 172, N-[3′,5′-difluoro-4′-[3-(trifluoromethyl)-1H-pyrazol-yl][1,1′-biphenyl]-2-yl]-3-(trifluoromethyl)-2-pyridinecarboxamide] was tested. Which “Test A rating (disease control)” value (Plasmopara viticola) did it give?
**A.** 0%

**Q.** What about the “Test D rating (disease control)” value (Phytophthora infestans) of the same molecule?
**A.** 0%

**Q.** What about the “Test E rating (disease control)” value (Septoria nodorum; [3]) of the same molecule?
**A.** 100%

**Q.** And the “Test F rating (disease control)” value (Septoria tritici; [3])?
**A.** 100%

**Q.** What about the “Test G rating (disease control)” value [1, 3] of the same molecule?
**A.** 100%

**Q.** What about the “Test B rating (disease control)” value (Botrytis cinerea) of the same molecule?
**A.** 65%

**Q.** What about the “Test H rating (disease control)” value [2, 3] of the same molecule?
**A.** 100%

**Q.** Which results are given for “3-difluoromethyl)-N-[3′,5′-difluoro-4′-(1-methyl-1H-pyrazol-3-yl)[1,1′-biphenyl]-2-yl]-1-methyl-1H-pyrazole [Compound 232]”?
**A.** Test G rating (100 = 100% disease control, 0 = no disease control relative to the controls) ([1]; no asterisk: standard test suspension, wheat leaf rust): 100%; Test B rating (100 = 100% disease control, 0 = no disease control relative to the controls) (Botrytis cinerea; no asterisk: standard test suspension, tomato botrytis): 81%; Test H rating (100 = 100% disease control, 0 = no disease control relative to the controls) ([2]; no asterisk: standard test suspension, wheat powdery mildew): 97%

**Q.** Which results are given for `O=C(Nc1ccccc1-c1cc(F)c(-n2ccc(C(F)(F)F)n2)c(F)c1)c1cccnc1Cl` [Compound 170, 2-chloro-N-[3′,5′-difluoro-4′-[3-(trifluoromethyl)-1H-pyrazol-1-yl][1,1′-biphenyl]-2-yl]-3-pyridinecarboxamide]?
**A.** Test A rating (disease control) (Plasmopara viticola): 0%; Test D rating (disease control) (Phytophthora infestans): 0%; Test E rating (disease control) (Septoria nodorum; [3]): 0%; Test F rating (disease control) (Septoria tritici; [3]): 100%; Test G rating (disease control) [1, 3]: 100%; Test B rating (disease control) (Botrytis cinerea): 0%; Test H rating (disease control) [2, 3]: 100%

**Q.** With `CC(Cc1ccc(-n2ccc(C(F)(F)F)n2)cc1Cl)NC(=O)c1nccnc1Cl` (stereo not drawn) [Compound 1] as the molecule, how does the “Test D rating (disease control)” value (Phytophthora infestans) read?
**A.** 0%

**Q.** And the “Test E rating (disease control)” value (Septoria nodorum; [3])?
**A.** 100%

**Q.** And the “Test F rating (disease control)” value (Septoria tritici; [3])?
**A.** 100%

**Q.** And the “Test G rating (disease control)” value [1, 3]?
**A.** 54%

**Q.** What about the “Test B rating (disease control)” value (Botrytis cinerea) of the same molecule?
**A.** 99%

**Q.** What about the “Test H rating (disease control)” value [2, 3] of the same molecule?
**A.** 100%
